Patent US8173636B2, “Hydroxylthienoquinolones and related compounds as anti-infective agents” (Achillion Pharmaceuticals, Inc., priority 2009, dated 2012)
≈ marks a conversion by molar mass, not a printed value.

Legend:
[1] = tested on: fluoroquinolone-resistant S. aureus ATCC 700699; test: Minimum inhibitory concentration (MIC) assay, broth microdilution, MRSA; format: cell-based; conditions: Staphylococcus aureus; fluoroquinolone-resistant S. aureus ATCC 700699; Table I; read-out: MRSA MIC
Method: (§1) The antimicrobial activity of the compounds of the invention may be evaluated by a number of methods, including the following visual minimum inhibitory concentration (MIC) assay. This assay determines the minimum concentration of compound required to inhibit growth of a bacterial strain.
(§2) Whole-cell antibacterial activity is determined by broth microdilution using conditions recommended by the NCCLS (see National Committee for Clinical Laboratory Standards. 2001. Performance standards for antimicrobial susceptibility testing: 11th informational supplement. Vol. 21, no. 1, M100-S11. National Committee for Clinical Laboratory Standards, Wayne, Pa.). Test compounds are dissolved in DMSO and diluted 1:50 in Mueller-Hinton II broth (Becton-Dickinson) to produce a 256 μg/ml stock solution. In a 96-well microtiter plate, the compound solution is serially two-fold diluted in Mueller-Hinton II broth. After the compounds are diluted, a 50 μl aliquot of the test organism (˜1×10^6 cfu/mL) is added to each well of the microtiter plate. The final test concentrations ranges from 0.125-128 μg/mL. Inoculated plates are incubated in ambient air at 37° C. for 18 to 24 hours. The organisms selected for testing included laboratory strains S. aureus ATCC 29213 and E. coli ATCC 25922 (strains purchased from American Type Culture Collection, Manassas, Va.) m, S. aureus FQR700699, and Paeruginosa 27853. The minimum inhibitory concentration (MIC) is determined as the lowest concentration of compound that inhibited visible growth of the test organism.

S. aureus ATCC 29213 = test: Minimum inhibitory concentration (MIC) assay, broth microdilution, MSSA; format: cell-based; conditions: Staphylococcus aureus, Table I
Method: as §1, §2

Row | Compound | MIC [1] | MIC (S. aureus ATCC 29213)
1 | COc1c(N2CCCC(=C(F)CN)C2)c(F)cc2c(=O)c3c(O)c(C(C)=O)sc3n(C3CC3)c12 [Cmp 66, 2-acetyl-7-(3-(2-amino-1-fluoroethylidene)piperidin-1-yl)-9-cycloprop-6-fluoro-3-hydroxyl-8-methoxythieno[2,3-b] quinolin-4(9H)-one] | 0.5 µg/mL (≈ 1.02 µM) | 0.25 µg/mL (≈ 0.511 µM)
2 | N#Cc1sc2c(c1O)c(=O)c1ccc(N3CCNCC3)c(OC(F)F)c1n2C1CC1 [Cmp 16, 9-cyclopropyl-8-(difluoromethoxy)-3-hydroxyl-4-oxo-7-(piperazin-l-yl)-4,9-dihydrothieno[2,3-b]quinoline-2-carbonitrile] | 64 µg/mL (≈ 148 µM) | 4 µg/mL (≈ 9.25 µM)
3 | COc1c(N2CCNC(C(N)=O)C2)c(F)cc2c(=O)c3c(n(C4CC4)c12)SC(C#N)C3=O (stereo not shown) [Cmp 52, 4-(2-cyano-9-cyclopropyl-6-fluoro-8-methoxy-3,4-dioxo-2,3,4,9-tetrahydrothieno[2,3-b]quinolin-7-yl) piperazine-2-carboxamide] | 2 µg/mL (≈ 4.37 µM) | 0.25 µg/mL (≈ 0.546 µM)
4 | COc1c(N2CC[C@@H](CN)C2)c(F)cc2c(=O)c3c(O)c(C(N)=O)sc3n(C3CC3)c12 [Cmp 61, (S)-7-(3-(aminomethyl)pyrrolidin-1-yl)-9-cyclopropyl-6-fluoro-3-hydroxyl-8-methoxy-4-oxo-4,9-dihydrothieno [2,3-b]quinoline-2-carboxamide] | 0.5 µg/mL (≈ 1.12 µM) | 0.13 µg/mL (≈ 0.291 µM)
5 | COc1c(N2CCNCC2)c(F)cc2c(=O)c3c(O)c(C(=O)C(C)(C)C)sc3n(C3CC3)c12 [Cmp 12, 9-cyclopropyl-6-fluoro-3-hydroxyl-8-methoxy-7-(piperazin-1-yl)-2-pivaloylthieno[2,3-b]quinolin 4(9H)-one] | 8 µg/mL (≈ 16.9 µM) | 8 µg/mL (≈ 16.9 µM)
6 | COc1c(N2CC[C@@H]([C@H](C)N(C)C)C2)c(F)cc2c(=O)c3c(O)c(C#N)sc3n(C3CC3)c12 [Cmp 33, 9-cyclopropyl-7-((R)-3-((S)-1-(dimethylamino)ethyl)pyrrolidin-1-yl)-6-fluoro-3-hydroxyl-8-methoxy-4-oxo-4,9-dihydrothieno [2,3-b]quinoline-2-carbonitrile] | 0.5 µg/mL (≈ 1.06 µM) | 0.06 µg/mL (≈ 0.128 µM)
7 | CCN[C@@H](C)[C@@H]1CCN(c2c(F)cc3c(=O)c4c(O)c(C#N)sc4n(C4CC4)c3c2OC)C1 [Cmp 30, 9-cyclopropyl-7-((R)-3-((S)-1-(ethylamino)ethyl)pyrrolidin-1-yl)-6-fluoro-3-hydroxyl-8-methoxy-4-oxo-4,9-dihydrothieno [2,3-b]quinoline-2-carbonitrile] | 0.13 µg/mL (≈ 0.276 µM) | 0.03 µg/mL (≈ 0.0638 µM)
8 | COc1c(N2CC[C@@H](c3ncn[nH]3)C2)c(F)cc2c(=O)c3c(n(C4CC4)c12)SC(C#N)C3=O (stereo partly drawn) [Cmp 44, 7-((R)-3-(1H-1,2,4-triazol-5-yl)pyrrolidin-1-yl)-9-cyclopropyl-6-fluoro-8-methoxy-3,4-dioxo-2,3,4,9-tetrahydrothieno [2,3-b]quinoline-2-carbonitrile] | 0.13 µg/mL (≈ 0.279 µM) | 0.02 µg/mL (≈ 0.0429 µM)
9 | COc1c(N2CCNCC2)c(F)cc2c(=O)c3c(O)csc3n(C3CC3)c12 [Cmp 8, 9-cyclopropyl-6-fluoro-3-hydroxyl-8-methoxy-7-(piperazin-1-yl)thieno[2,3-b]quinolin-4(9H)-one] | > 64 µg/mL | 32 µg/mL (≈ 82.2 µM)
10 | COc1c(N2CCC[C@H](N)C2)c(F)cc2c(=O)c3c(O)c(C#N)sc3n(C3CC3)c12 [Cmp 54, (S)-7-(3-aminopiperidin-1-yl)-9-cyclopropyl-6-fluoro-3-hydroxyl-8-methoxy-4-oxo-4,9-dihydrothieno[2,3-b] quinoline-2-carbonitrile] | 0.5 µg/mL (≈ 1.17 µM) | 0.13 µg/mL (≈ 0.303 µM)
11 | COc1c(N2C[C@H]3CNC[C@H]3C2)c(F)cc2c(=O)c3c(O)c(C#N)sc3n(C3CC3)c12 [Cmp 42, 9-cyclopropyl-6-fluoro-7-((3aR,6aS)-hexahydropyrrolo [3,4-c]pyrrol-2(1H)-yl)-3-hydroxyl-8-methoxy-4-oxo-4,9-dihydrothieno[2,3-b]quinoline-2-carbonitrile] | 1 µg/mL (≈ 2.27 µM) | 0.25 µg/mL (≈ 0.568 µM)
12 | COc1c(-c2ccnc(C)c2)c(F)cc2c(=O)c3c(O)c(C#N)sc3n(C3CC3)c12 [Cmp 4, 9-cyclopropyl-6-fluoro-3-hydroxyl-8-methoxy-7-(2-methylpyridin-4-yl)-4-oxo-4,9-dihydrothieno[2,3-b]quinoline-2-carbonitrile] | 0.13 µg/mL (≈ 0.308 µM) | 0.02 µg/mL (≈ 0.0475 µM)
13 | COc1c(N2CC[C@@H](C(C)(C)N)C2)c(F)cc2c(=O)c3c(O)c(C#N)sc3n(C3CC3)c12 [Cmp 10, (R)-7-(3-(2-aminopropan-2-yl)pyrrolidin-1-yl)-9-cyclopropyl-6-fluoro-3-hydroxyl-8-methoxy-4-oxo-4,9-dihydrothieno [2,3-b]quinoline-2-carbonitrile] | 0.094 µg/mL (≈ 0.206 µM) | 0.02 µg/mL (≈ 0.0438 µM)
14 | COc1c(N2CCNCC2)c(F)cc2c(=O)c3c(O)c(S(=O)(=O)c4ccccc4)sc3n(C3CC3)c12 [Cmp 14, 9-cyclopropyl-6-fluoro-3-hydroxyl-8-methoxy-2-(phenylsulfonyl)-methoxy-2-7-(piperazin-1-yl)thieno[2,3-b]quinolin-4(9H)-one] | 16 µg/mL (≈ 30.2 µM) | 1 µg/mL (≈ 1.89 µM)
15 | COc1c(N2CC(O)C2)c(F)cc2c(=O)c3c(O)c(C#N)sc3n(C3CC3)c12 [Cmp 24, 9-cyclopropyl-6-fluoro-3-hydroxyl-7-(3-hydroxylazetidin-1-yl)-8-methoxy-4-oxo-4,9-dihydrothieno[2,3-b]quinoline-2-carbonitrile] | 1 µg/mL (≈ 2.49 µM) | 0.06 µg/mL (≈ 0.149 µM)
16 | COC(=O)c1sc2c(c1O)c(=O)c1cc(F)c(N3CC[C@@H](C(C)(C)N)C3)c(OC)c1n2C1CC1 [Cmp 5, (R)-methyl 7-(3-(2-aminopropan-2-yl)pyrrolidin-1-yl)-9-cyclopropyl-6-fluoro-3-hydroxyl-8-methoxy-4-oxo-4,9-dihydrothieno [2,3-b]quinoline-2-carboxylate] | 64 µg/mL (≈ 131 µM) | 2 µg/mL (≈ 4.09 µM)
17 | C[C@H]1COc2c(N3CCNCC3)c(F)cc3c(=O)c4c(n1c23)SC(C#N)C4=O (stereo partly drawn) [Cmp 47, (1S)-5-fluoro-1-methyl-7,8-dioxo-4-(piperazin-1-yl)-2,7,8,9-tetrahydro-1H-[1,4]oxazino[2,3,4-ij]thieno[2,3-b] quinoline-9-carbonitrile] | 4 µg/mL (≈ 9.99 µM) | 1 µg/mL (≈ 2.5 µM)
18 | COc1c(N2CCNCC2)ccc2c(=O)c3c(O)c(C#N)sc3n(C3CC3)c12 [Cmp 19, 9-cyclopropyl-3-hydroxyl-8-methoxy-4-oxo-7-(piperazin-1-yl)-4,9-dihydrothieno[2,3-b]quinoline-2-carbonitrile] | 4 µg/mL (≈ 10.1 µM) | 0.25 µg/mL (≈ 0.631 µM)
19 | COc1c(N2CC[C@H](N)C2)c(F)cc2c(=O)c3c(O)c(C#N)sc3n(C3CC3)c12 [Cmp 22, (S)-7-(3-aminopyrrolidin-l-yl)-9-cyclopropyl-6-fluoro-3-hydroxyl-8-methoxy-4-oxo-4,9-dihydrothieno[2,3-b]quinoline-2-carbonitrile] | 0.25 µg/mL (≈ 0.603 µM) | 0.03 µg/mL (≈ 0.0724 µM)
20 | COc1c(N2CCNCC2)c(F)cc2c(=O)c3c(O)c(C#N)sc3n(C3CC3)c12 [Cmp 9, 9-cyclopropyl-6-fluoro-3-hydroxyl-8-methoxy-4-oxo-7-(piperazin-1-yl)-4,9-dihydrothieno[2,3-b]quinoline-2-carbonitrile] | 0.75 µg/mL (≈ 1.81 µM) | 0.06 µg/mL (≈ 0.145 µM)
21 | COc1c(N2CC[C@H](N)C2)c(F)cc2c(=O)c3c(O)c(C#N)[nH]c3n(C3CC3)c12 [Cmp 28, (S)-7-(3-aminopyrrolidin-l-yl)-9-cyclopropyl-6-fluoro-3-hydroxyl-8-methoxy-4-oxo-4,9-dihydro-1H-pyrrolo[2,3-b]quinoline-2-carbonitrile] |  | 64 µg/mL (≈ 161 µM)
22 | COc1c(N2CC[C@@H](C(C)(C)N(C)C)C2)c(F)cc2c(=O)c3c(O)c(C#N)sc3n(C3CC3)c12 [Cmp 36, (R)-9-cyclopropyl-7-(3-(2-(dimethylamino)propan-2-yl)pyrrolidin-1-yl)-6-fluoro-3-hydroxyl-8-methoxy-4-oxo-4,9-dihydrothieno[2,3-b]quinoline-2-carbonitrile] | 2 µg/mL (≈ 4.13 µM) | 0.25 µg/mL (≈ 0.516 µM)
23 | COc1c(N2CC[C@@H]([C@H](C)N)C2)c(F)cc2c(=O)c3c(O)c(C#N)sc3n(C3CC3)c12 [Cmp 11, 7-((R)-3-((S)-1-aminoethyl)pyrrolidin-1-yl)-9-cyclopropyl-6-fluoro-3-hydroxyl-8-methoxy-4-oxo-4,9-dihydrothieno[2,3-b] quinoline-2-carbonitrile] | 0.094 µg/mL (≈ 0.212 µM) | 0.02 µg/mL (≈ 0.0452 µM)
24 | COc1c(N2CCC[C@H]2C(N)=O)c(F)cc2c(=O)c3c(n(C4CC4)c12)SC(C#N)C3=O (stereo partly drawn) [Cmp 46, (2S)-1-(2-cyano-9-cyclopropyl-6-fluoro-8-methoxy-3,4-dioxo-2,3,4,9-tetrahydrothieno[2,3-b]quinolin-7-yl)pyrrolidine-2-carboxamide] | 64 µg/mL (≈ 145 µM) | 4 µg/mL (≈ 9.04 µM)
25 | COc1c(N2CCNCC2)c(F)cc2c(=O)c3c(O)c(C(N)=O)sc3n(C3CC3)c12 [Cmp 25, 9-cyclopropyl-6-fluoro-3-hydroxyl-8-methoxy-4-oxo-7-(piperazin-1-yl)-4,9-dihydrothieno[2,3-b]quinoline-2-carboxamide] | 2 µg/mL (≈ 4.62 µM) | 0.25 µg/mL (≈ 0.578 µM)
